Test results taken from US11661418B2, “MASP-2 inhibitors and methods of use” (Omeros Corporation, priority 2019, dated 2023).

Target: MASP-2 (CCP1-CCP2-SP) (Homo sapiens (Human), UniProt O00187)
Assay: Enzymatic Assay for MASP-2 (fluorogenic substrate)
Assay type: biochemical
Conditions: fluorogenic substrate based on C2 cleavage site; room temperature; 20 mM HEPES pH 7.4, 140 mM NaCl, 0.1% Tween 20; 20 min
Method: The MASP-2 assay utilizes a fluorogenic substrate, based on the cleavage site for its natural substrate C2. The assay is run at room temperature in an assay buffer containing 20 mM HEPES, pH 7.4, 140 mM NaCl and 0.1% Tween 20. Assay parameters are adjusted such that the assay is linear with respect to time, enzyme, and substrate concentrations. Under these optimized assays conditions, IC50 values are equivalent to Ki values, except in a few cases of “tight binding” inhibitors. Cases of “tight binding” or possible “slow binding” inhibitors are handled by the methods described in Copeland R.A. (2013) Evaluation of Enzyme Inhibitors in Drug Discovery. 2nd Ed., John Wiley and Sons, Inc., Chapters 5-7.
The MASP-2 assay protocol is carried out as follows. Test compounds are serially diluted in DMSO and then 100 nL of each dilution is transferred to the assay plate(s). 10 μL of Assay Buffer is added, followed by 15 μL of Enzyme MASP-2 (CCP1-CCP2-SP) in Assay Buffer. 15 μL of Substrate in Assay Buffer is then added and mixed to start the reactions. After 20 min at room temperature, 15 μL of a stop solution (0.1 M acetic acid) is added, mixed and the plates are read on a SpectraMax i3x Microplate Reader and exported as Excel files. Each assay plate included a “no inhibitor” (DMSO Only) control, a “no enzyme” control and a reference inhibitor control. % Activity values=100*(average test comp. fluorescence−average “no enzyme” fluorescence)/(average “DMSO only” fluorescence−average “no enzyme” fluorescence). IC50 and Ki values are very reproducible, falling well within 2-fold.

MASP-2 (CCP1-CCP2-SP), sequence (O00187 445-686): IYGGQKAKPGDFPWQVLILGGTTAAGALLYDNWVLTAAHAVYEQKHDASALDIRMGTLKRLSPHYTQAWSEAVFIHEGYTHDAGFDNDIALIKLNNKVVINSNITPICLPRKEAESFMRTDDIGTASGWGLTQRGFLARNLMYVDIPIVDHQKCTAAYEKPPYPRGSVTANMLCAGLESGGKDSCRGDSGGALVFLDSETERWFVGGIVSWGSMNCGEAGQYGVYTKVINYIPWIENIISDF
MASP-2 (CCP1-CCP2-SP), sequence (O00187 287-444 partner): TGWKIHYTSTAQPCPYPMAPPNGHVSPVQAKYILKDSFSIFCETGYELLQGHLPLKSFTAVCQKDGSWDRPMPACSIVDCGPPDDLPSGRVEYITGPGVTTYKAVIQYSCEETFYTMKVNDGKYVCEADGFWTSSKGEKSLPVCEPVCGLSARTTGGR

Compound	Ki [nM]
CC(C)[C@H](N)C(=O)O/N=C(\N)c1ccc(CNC(=O)[C@H](C)NC(=O)[C@H]2C[C@@H](c3ccccc3)CCN2)cc1 [Compound I-7, (2R,4S)—N—((S)-1-((4-((Z)—N′-((L-valyl)oxy)carbamimidoyl)benzyl)amino)-1-oxopropan-2-yl)-4-phenylpiperidine-2-carboxamide]	< 500
C[C@H](NC(=O)[C@H]1C[C@@H](c2ccccc2)CC[N+]1(C)C)C(=O)NCc1ccc(C(=N)N)cc1 [Compound I-10, (2R,4S)-2-(((S)-1-((4-carbamimidoylbenzyl)amino)-1-oxopropan-2-yl)carbamoyl)-1,1-dimethyl-4-phenylpiperidin-1-ium 2,2,2-trifluoroacetate]	< 500
CCOC(=O)CCN1CC[C@H](c2ccccc2)C[C@@H]1C(=O)N[C@@H](C)C(=O)NCc1ccc(C(=N)N)cc1 [Compound I-13, ethyl 3-((2R,4S)-2-(((S)-1-((4-carbamimidoylbenzyl)amino)-1-oxopropan-2-yl)carbamoyl)-4-phenylpiperidin-1-yl)propanoate]	< 500
C[C@H](NC(=O)[C@H]1C[C@@H](c2ccccc2)CCN1CCC(=O)O)C(=O)NCc1ccc(C(=N)N)cc1 [Compound I-14, 3-((2R,4S)-2-(((S)-1-((4-carbamimidoylbenzyl)amino)-1-oxopropan-2-yl)carbamoyl)-4-phenylpiperidin-1-yl)propanoic acid]	< 500
C[C@H](NC(=O)[C@H]1C[C@@H](c2ccccc2)CCN1CCP(=O)(O)O)C(=O)NCc1cc2cnccc2[nH]1 [Compound I-15, (2-((2R,4S)-2-(((S)-1-(((1H-pyrrolo[3,2-c]pyridin-2-yl)methyl)amino)-1-oxopropan-2-yl)carbamoyl)-4-phenylpiperidin-1-yl)ethyl)phosphonic acid]	< 500
Cc1nc(N)ccc1CNC(=O)[C@@H]1CCN1C(=O)[C@H]1C[C@@H](c2ccccc2)CCN1C [Compound I-16, (S)—N-((6-amino-2-methylpyridin-3-yl)methyl)-1-((2R,4S)-1-methyl-4-phenylpiperidine-2-carbonyl)azetidine-2-carboxamide]	< 500
CN1CC[C@H](c2ccccc2)C[C@@H]1C(=O)N1CC[C@H]1C(=O)NCc1ccc(C(=N)N)cc1 [Compound I-17, (S)—N-(4-carbamimidoylbenzyl)-1-((2R,4S)-1-methyl-4-phenylpiperidine-2-carbonyl)azetidine-2-carboxamide]	< 500
N=C(NC(=O)OCc1ccccc1)c1ccc(CNC(=O)[C@@H]2CCN2C(=O)[C@H]2C[C@@H](c3ccccc3)CCN2)cc1 [Compound I-19, benzyl (imino(4-(((S)-1-((2R,4S)-4-phenylpiperidine-2-carbonyl)azetidine-2-carboxamido)methyl)phenyl)methyl)carbamate]	500 to 2500
CCN1CC[C@H](c2ccccc2)C[C@@H]1C(=O)N[C@@H](C)C(=O)NCc1ccc(C(=N)NC(=O)OCc2ccccc2)cc1 [Compound I-20, benzyl ((4-(((S)-2-((2R,4S)-1-ethyl-4-phenylpiperidine-2-carboxamido)propanamido)methyl)phenyl)(imino)methyl)carbamate]	2500 to 10000
CCN1CC[C@H](c2ccccc2)C[C@@H]1C(=O)N[C@@H](C)C(=O)NCc1ccc(C(=N)N)cc1 [Compound I-21, (2R,4S)—N—((S)-1-((4-carbamimidoylbenzyl)amino)-1-OXOPROPAN-2-yl)-1-ethyl-4-phenylpiperidine-2-carboxamide]	< 500
CCN1CC[C@H](c2cccc(-n3cccn3)c2)C[C@@H]1C(=O)N[C@@H](C)C(=O)NCc1cc(Cl)ccc1-n1cnnn1 [Compound I-22, (2R,4S)-4-(3-(1H-pyrazol-1-yl)phenyl)-N—((S)-1-((5-chloro-2-(1H-tetrazol-1-yl)benzyl)amino)-1-oxopropan-2-yl)-1-ethylpiperidine-2-carboxamide]	< 500
C[C@H](NC(=O)[C@H]1C[C@@H](c2ccccc2)CCN1)C(=O)NCc1ccc(/C(N)=N/O)s1 [Compound I-24, (2R,4S)—N—((S)-1-(((5-((Z)—N-hydroxycarbamimidoyl)thiophen-2-yl)methyl)amino)-1-oxopropan-2-yl)-4-phenylpiperidine-2-carboxamide]	< 500
C[C@H](NC(=O)[C@H]1C[C@@H](c2ccccc2)CCN1)C(=O)NCc1ccc(/C(N)=N/O)cc1 [Compound I-31, (2R,4S)—N—((S)-1-((4-((Z)—N′-hydroxycarbamimidoyl)benzyl)amino)-1-oxopropan-2-yl)-4-phenylpiperidine-2-carboxamide]	500 to 2500
